Molecules are shown by their SMILES.

The target of one assay is TNF-α converting enzyme (TACE) (Homo sapiens, UniProt P78536). Put plainly: TACE inhibition (fluorescent peptidyl substrate). In kind it is biochemical. To be noted: 1 uM; Table 15.
Sequence of TNF-α converting enzyme (TACE) (P78536 215-824, species assumed): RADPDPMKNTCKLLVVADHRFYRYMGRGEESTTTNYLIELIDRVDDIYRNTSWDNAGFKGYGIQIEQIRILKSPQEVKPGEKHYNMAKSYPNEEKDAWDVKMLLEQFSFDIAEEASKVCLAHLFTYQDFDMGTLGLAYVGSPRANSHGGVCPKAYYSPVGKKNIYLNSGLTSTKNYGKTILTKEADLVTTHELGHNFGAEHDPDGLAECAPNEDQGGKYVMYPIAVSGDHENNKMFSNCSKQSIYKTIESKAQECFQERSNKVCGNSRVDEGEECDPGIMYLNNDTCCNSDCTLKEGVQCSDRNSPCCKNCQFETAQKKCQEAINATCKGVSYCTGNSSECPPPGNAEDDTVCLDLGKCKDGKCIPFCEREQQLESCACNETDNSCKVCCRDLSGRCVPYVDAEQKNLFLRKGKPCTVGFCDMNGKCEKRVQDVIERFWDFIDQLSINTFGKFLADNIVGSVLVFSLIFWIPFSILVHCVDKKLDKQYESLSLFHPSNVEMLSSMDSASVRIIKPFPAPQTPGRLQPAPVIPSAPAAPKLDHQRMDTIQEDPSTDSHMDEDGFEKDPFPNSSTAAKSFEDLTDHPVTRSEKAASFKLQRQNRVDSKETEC
Turning to `CC#CCOc1ccc(S(=O)(=O)N[C@@H](CC)C(=O)NO)cc1` [Example 63], the “% Inhibition at 1 uM (In Vitro Inhibition of TACE)” value (from here on “% Inhibition at 1 uM”) stood at 47.6%.

For `CC#CCOc1ccc(S(=O)(=O)NC(CC(N)=O)C(=O)NO)cc1` (centres unmarked) [Example 66], the “% Inhibition at 1 uM” value is given as 45.6%.

Take `CC#CCOc1ccc(S(=O)(=O)NC(CC(=O)O)C(=O)NO)cc1` (centres unmarked) [Example 67]: the “% Inhibition at 1 uM” value is 46.2%.

Turning to `CC#CCOc1ccc(S(=O)(=O)NCCC(=O)NO)cc1` [Example 69], the “% Inhibition at 1 uM” value was 48.5%.

For the compound `CC#CCOc1ccc(S(=O)(=O)NC(CCN)C(=O)NO)cc1` (centres unmarked) [Example 70], the “% Inhibition at 1 uM” value was found to be 21.1%.

Turning to `CC#CCOc1ccc(S(=O)(=O)NC(CSC(C)(C)C)C(=O)NO)cc1` (centres unmarked) [Example 73], the “% Inhibition at 1 uM” value turned out to be 79%.

`CC#CCOc1ccc(S(=O)(=O)NC(CCCN)C(=O)NO)cc1` (centres unmarked) [Example 76]: the “% Inhibition at 1 uM” value is listed as 29.7%.

Regarding `CC#CCOc1ccc(S(=O)(=O)NC(CC(C)C)C(=O)NO)cc1` (centres unmarked) [Example 79], the “% Inhibition at 1 uM” value is listed as 107%.

Regarding `CC#CCOc1ccc(S(=O)(=O)NC(CCC(=O)O)C(=O)NO)cc1` (centres unmarked) [Example 86], the “% Inhibition at 1 uM” value stood at 37.5%.

As for `CC#CCOc1ccc(S(=O)(=O)NC(Cc2c[nH]cn2)C(=O)NO)cc1` (centres unmarked) [Example 87], the “% Inhibition at 1 uM” value came out at 47.8%.

Take `CC#CCOc1ccc(S(=O)(=O)N2CC(OCc3ccccc3)CC2C(=O)NO)cc1` (centres unmarked) [Example 88]: the “% Inhibition at 1 uM” value is on record as 8.4%.

`CC#CCOc1ccc(S(=O)(=O)N[C@H](C(=O)NO)[C@@H](C)CC)cc1` [Example 89]: the “% Inhibition at 1 uM” value came to 56.8%.

For `CC#CCOc1ccc(S(=O)(=O)NC(Cc2ccccc2)C(=O)NO)cc1` (centres unmarked) [Example 94], the “% Inhibition at 1 uM” value was determined as 38.2%.

For the compound `CC#CCOc1ccc(S(=O)(=O)NC(CSCNC(C)=O)C(=O)NO)cc1` (centres unmarked) [Example 96], the “% Inhibition at 1 uM” value was found to be 22%.

Turning to `CC#CCOc1ccc(S(=O)(=O)NC(CO)C(=O)NO)cc1` (centres unmarked) [Example 98], the “% Inhibition at 1 uM” value came to 2.5%.

With `CC#CCOc1ccc(S(=O)(=O)NC(C(=O)NO)C(C)OCc2ccccc2)cc1` (centres unmarked) [Example 99], the “% Inhibition at 1 uM” value came out at 28.5%.

Take `CC#CCOc1ccc(S(=O)(=O)NC(C(=O)NO)C(C)O)cc1` (centres unmarked) [Example 100]: the “% Inhibition at 1 uM” value is 15.4%.

Turning to `CC#CCOc1ccc(S(=O)(=O)NC(Cc2c[nH]c3ccccc23)C(=O)NO)cc1` (centres unmarked) [Example 101], the “% Inhibition at 1 uM” value is recorded as 30.2%.

For the compound `CC#CCOc1ccc(S(=O)(=O)NC(Cc2ccc(O)cc2)C(=O)NO)cc1` (centres unmarked) [Example 102], the “% Inhibition at 1 uM” value stood at 27.3%.

Turning to `CC#CCOc1ccc(S(=O)(=O)NC(Cc2ccc(OCc3ccccc3)cc2)C(=O)NO)cc1` (centres unmarked) [Example 103], the “% Inhibition at 1 uM” value was determined as 52.8%.

As to `CC#CCOc1ccc(S(=O)(=O)NC(C(=O)NO)C(C)C)cc1` (centres unmarked) [Example 104], the “% Inhibition at 1 uM” value was 38.5%.

The assay is the same for the next values; noted with them: 1 uM; Table 15; read-out: % Inhibition at 1 uM (In Vitro Inhibition of TACE).
In the case of `CC#CCOc1ccc(S(=O)(=O)NC(C)C(=O)NO)cc1` (stereo in doubt) [Example 62B, L-2-(4-but-2-ynyloxy-Benzenesulfonylamino)-N-hydroxy-propionamide], the inhibition at 1 µM was 46.2%.

Regarding `CC#CCOc1ccc(S(=O)(=O)N[C@@H](C(=O)NO)C(C)C)cc1` [Example 85], the inhibition at 1 µM came to 102%.

The assay is the same for the next values; noted with them: IC 50 nM (In Vitro Inhibition of TACE), Table 15.
`CC#CCOc1ccc(S(=O)(=O)N[C@@H](CCCNC(=N)N)C(=O)NO)cc1` [Example 64] had an IC50 of 420 ± 50 nM.

As for `CC#CCOc1ccc(S(=O)(=O)N[C@@H](CCCN=C(N)NS(=O)(=O)c2ccc(C)cc2)C(=O)NO)cc1` [Example 65], the IC50 stood at 398 ± 136 nM.

For `CC#CCOc1ccc(S(=O)(=O)N[C@@H](CC(=O)OC2CCCCC2)C(=O)NO)cc1` [Example 68], the IC50 is 885 nM.

Turning to `CC#CCOc1ccc(S(=O)(=O)N[C@@H](CC2CCCCC2)C(=O)NO)cc1` [Example 71], the IC50 came out at 402 ± 55 nM.

For the compound `CC#CCOc1ccc(S(=O)(=O)N[C@H](C(=O)NO)C2CCCCC2)cc1` [Example 72], the IC50 came out at 550 nM.

`CC#CCOc1ccc(S(=O)(=O)N[C@@H](CSCc2ccc(OC)cc2)C(=O)NO)cc1` [Example 74] displayed an IC50 of 297 ± 119 nM.

For `CC#CCOc1ccc(S(=O)(=O)N[C@H](CC(N)=O)C(=O)NO)cc1` [Example 75], the IC50 was found to be 387 nM.

As for `CC#CCOc1ccc(S(=O)(=O)N[C@H](CC2CCCCC2)C(=O)NO)cc1` [Example 77], the IC50 was 6.9 ± 3.3 nM.

In the case of `CC#CCOc1ccc(S(=O)(=O)N[C@@H](C(=O)NO)C2CCCCC2)cc1` [Example 78], the IC50 is 11.8 ± 4.6 nM.

Take `CC#CCOc1ccc(S(=O)(=O)N[C@H](CCSC)C(=O)NO)cc1` [Example 80]: the IC50 is 10.8 ± 3.7 nM.

Take `CC#CCOc1ccc(S(=O)(=O)N[C@H](Cc2ccccc2)C(=O)NO)cc1` [Example 81]: the IC50 came to 4.99 ± 1.1 nM.

Regarding `CC#CCOc1ccc(S(=O)(=O)N2CCC[C@@H]2C(=O)NO)cc1` [Example 82], the IC50 came to 7.1 nM.

In turn, `CC#CCOc1ccc(S(=O)(=O)N[C@H](Cc2c[nH]c3ccccc23)C(=O)NO)cc1` [Example 83] had an IC50 of 45.1 ± 9.5 nM.

Compound `CC#CCOc1ccc(S(=O)(=O)N[C@H](Cc2ccc(O)cc2)C(=O)NO)cc1` [Example 84] gave an IC50 of 7.8 ± 0.4 nM.

For `CC#CCOc1ccc(S(=O)(=O)N[C@@H](C(=O)NO)C(C)C)cc1` [Example 85], the IC50 came out at 8.3 ± 2.7 nM.

Compound `CC#CCOc1ccc(S(=O)(=O)N[C@@H](CC(C)C)C(=O)NO)cc1` [Example 90] gave an IC50 of 462 ± 58 nM.

In the case of `CC#CCOc1ccc(S(=O)(=O)N[C@@H](CCCCN)C(=O)NO)cc1` [Example 92], the IC50 came out at 490 ± 139 nM.

As for `CC#CCOc1ccc(S(=O)(=O)N[C@@H](CCCC)C(=O)NO)cc1` [Example 93], the IC50 is 546 nM.

`CC#CCOc1ccc(S(=O)(=O)N[C@H](C(=O)NO)c2ccccc2)cc1` [Example 95] came in with an IC50 of 120 nM.

Consider `CC#CCOc1ccc(S(=O)(=O)N[C@@H](COCc2ccccc2)C(=O)NO)cc1` [Example 97], for which the IC50 worked out at 283 ± 42 nM.

`CC#CCOc1ccc(S(=O)(=O)N[C@H](CCCNC(=N)NS(=O)(=O)c2c(C)cc(OC)c(C)c2C)C(=O)NO)cc1` [Example 295] came in with an IC50 of 29.3 nM.

For `CC#CCOc1ccc(S(=O)(=O)N[C@H](CCCNC(=N)N)C(=O)NO)cc1` [Example 296, (2R)-2-(4-But-2-ynyloxy-benzenesulfonylamino)-5-guanidino-pentanoic acid hydroxyamide], the IC50 is 10.9 nM.

As to `CC#CCOc1ccc(S(=O)(=O)N[C@H](CCCNC(=N)NS(=O)(=O)c2ccc(C)cc2)C(=O)NO)cc1` [Example 297, (2R)-2-({[4-(2-Butynyloxy)phenyl]sulfonyl}amino)-N-hydroxy-5-[(imino{[(4-methylphenyl)sulfonyl]amino}methyl)amino]pentanamide], the IC50 worked out at 10.9 nM.

As for `CC#CCOc1ccc(S(=O)(=O)N[C@H](CSC(C)(C)C)C(=O)NO)cc1` [Example 299, (2S)-3-(tert-Butylthio)-2-({[4-(but-2-ynyloxy)phenyl]sulfonyl}amino)-N-hydroxypropanamide], the IC50 was found to be 10.4 nM.

The compound `CC#CCOc1ccc(S(=O)(=O)N[C@H](CSCNC(C)=O)C(=O)NO)cc1` [Example 300, (2S)-3-{[(Acetylamino)methyl]thio}-2-({[4-(but-2-ynyloxy)phenyl]sulfonyl}amino)-N-hydroxypropanamide] had an IC50 of 11 nM.

In turn, `CC#CCOc1ccc(S(=O)(=O)N[C@H](CSCc2ccc(C)cc2)C(=O)NO)cc1` [Example 301, (2S)-2-({[4-(But-2-ynyloxy)phenyl]sulfonyl}amino)-N-hydroxy-3-[(4-methylbenzyl)thio]propanamide] returned an IC50 of 24.6 nM.

In turn, `CC#CCOc1ccc(S(=O)(=O)N[C@H](CCC(N)=O)C(=O)NO)cc1` [Example 303, (2R)-2-({[4-(But-2-ynyloxy)phenyl]sulfonyl}amino)-N-hydroxypentanediamide] gave an IC50 of 27.4 nM.

Regarding `CC#CCOc1ccc(S(=O)(=O)N[C@H](CCC(=O)O)C(=O)NO)cc1` [Example 304, (4R)-4-({[4-(But-2-ynyloxy)phenyl]sulfonyl}amino)-5-(hydroxyamino)-5-oxopentanoic acid], the IC50 came to 28.9 nM.

`CC#CCOc1ccc(S(=O)(=O)N[C@H](CCc2ccccc2)C(=O)NO)cc1` [Example 305, (2R)-2-({[4-(But-2-ynyloxy)phenyl]sulfonyl}amino)-N-hydroxy-4-phenylbutanamide] registered an IC50 of 13.4 nM.

In turn, `CC#CCOc1ccc(S(=O)(=O)N[C@H](Cc2cnc[nH]2)C(=O)NO)cc1` [Example 306, (2R)-2-({[4-(But-2-ynyloxy)phenyl]sulfonyl}amino)-N-hydroxy-3-(1H-imidazol-5-yl)propanamide] came in with an IC50 of 8.7 nM.

For `CC#CCOc1ccc(S(=O)(=O)N2C[C@@H](O)C[C@@H]2C(=O)NO)cc1` [Example 307, (2R,4S)-1-{[4-(But-2-ynyloxy)phenyl]sulfonyl}-N,4-dihydroxypyrrolidine-2-carboxamide], the IC50 was 29.4 nM.

In turn, `CC#CCOc1ccc(S(=O)(=O)N[C@H](CCCCN)C(=O)NO)cc1` [Example 308, (2R)-6-Amino-2-({[4-(but-2-ynyloxy)phenyl]sulfonyl}amino)-N-hydroxyhexanamide] came in with an IC50 of 29.5 nM.

`CC#CCOc1ccc(S(=O)(=O)N[C@H](CCCCNC(=O)OCc2ccccc2)C(=O)NO)cc1` [Example 309, Benzyl(5R)-5-({[4-(but-2-ynyloxy)phenyl]sulfonyl}amino)-6-(hydroxyamino)-6-oxohexylcarbamate] came in with an IC50 of 11.4 nM.

Staying with this assay, now noted: read-out: IC 50 nM (In Vitro Inhibition of TACE); Table 15.
Consider `CC#CCOc1ccc(S(=O)(=O)NC(CSC(C)(C)C)C(=O)NO)cc1` (centres unmarked) [Example 73], for which the IC50 stood at 451 ± 31 nM.

In the case of `CC#CCOc1ccc(S(=O)(=O)NC(CC(C)C)C(=O)NO)cc1` (centres unmarked) [Example 79], the IC50 was found to be 5.7 ± 2.5 nM.

Still in this assay, the particulars now being: read-out: TACE IC50.
For the compound `CC#CCOc1ccc(S(=O)(=O)N(C)CC(=O)NO)cc1` [Example 17, 2-[(4-but-2-ynyloxy-Benzenesulfonyl)-methyl-amino]-N-hydroxy-acetamide], the IC50 is 6.8 nM.

One may read the % Inhibition as the drop in the measured response relative to a control, in per cent. One may read the inhibition as the change of the read-out against control, counted positive when it falls.

For the origin of these results see US6716833B2, “Acetylenic α-amino acid-based sulfonamide hydroxamic acid tace inhibitors” (priority 1999, dated 2004).
